Patent US20100009970A1, “COMPOSITIONS AND METHODS FOR TREATMENT OF VIRAL DISEASES” (Combinatorx (Singapore) Pte. Ltd., priority 2008, published 2010)

Columns and labels:
[1] = tested on: Huh7 cells expressing a subgenomic RNA replicon of Con1 (genotype 1b) sequence origin; assay: microbe, parasite or virus in culture; conditions: Hepatitis C virus; for IC50: Huh-7, read-out: IC50 (uM) [SG]; for IC90: Huh-7
[2] = in vitro; conditions: human, CC50 (uM) [SG]

Row | SMILES | IC50 [1] [µM] | CC50 [2] [µM] | IC90 [1] [µM]
1 | CSc1ccc(Oc2ccc(S(N)(=O)=O)cc2CN2CCN(c3ccncc3)CC2)cc1C [Compound 91, 4-(3-methyl-4-(methylthio)phenoxy)-3-((4-(pyridin-4-yl)piperazin-1-yl)methyl)benzenesulfonamide] | 4.91 | 9.86 | –
2 | CSc1ccc(Oc2ccc(S(N)(=O)=O)cc2CN2CCN(c3ccc(Cl)cc3)CC2)cc1C [Compound 92, 3-((4-(4-chlorophenyl)piperazin-1-yl)methyl)-4-(3-methyl-4-(methylthio)phenoxy)benzenesulfonamide] | 30 | 44.4 | –
3 | CSc1ccc(Oc2ccc(S(N)(=O)=O)cc2CN2CCN(c3ccccc3)CC2)cc1C [Compound 93, 4-(3-methyl-4-(methylthio)phenoxy)-3-((4-phenylpiperazin-1-yl)methyl)benzenesulfonamide] | 20.2 | 43.1 | –
4 | CSc1ccc(Oc2ccc(S(N)(=O)=O)cc2CN(C)CCCN(C)C)cc1C [Compound 94, 3-(((3-(dimethylamino)propyl)(methyl)amino)methyl)-4-(3-methyl-4-(methylthio)phenoxy)benzenesulfonamide] | 3.26 | 15 | 7.38
5 | CSc1ccc(Oc2ccc(S(N)(=O)=O)cc2CN2CCN(CCO)CC2)cc1C [Compound 95, 3-((4-(2-hydroxyethyl)piperazin-1-yl)methyl)-4-(3-methyl-4-(methylthio)phenoxy)benzenesulfonamide] | 6.5 | > 50 | 17
6 | CSc1ccc(Oc2ccc(S(N)(=O)=O)cc2CNCCN(C)C)cc1C [Compound 96, 3-((2-(dimethylamino)ethylamino)methyl)-4-(3-methyl-4-(methylthio)phenoxy)benzenesulfonamide] | 2.77 | 19.4 | 5.89
7 | CSc1ccc(Oc2ccc(S(N)(=O)=O)cc2CN(C)CCN(C)C)cc1C [Compound 97, 3-(((2-(dimethylamino)ethyl)(methyl)amino)methyl)-4-(3-methyl-4-(methylthio)phenoxy)benzenesulfonamide] | 12.4 | 43.3 | 14
8 | CSc1ccc(N(C)c2ccc(Br)cc2CN(C)C)cc1C [Compound 98, 4-Bromo-2-((dimethylamino)methyl)-N-methyl-N-(3-methyl-4-(methylthio)phenyl)aniline] | 25 | > 50 | 26.8
9 | CSc1ccc(Oc2ccc(S(N)(=O)=O)cc2CN2CC[C@@H](N(C)C)C2)cc1C [Compound 100, (R)-3-((3-(dimethylamino)pyrrolidin-1-yl)methyl)-4-(3-methyl-4-(methylthio)phenoxy)benzenesulfonamide] | 5.03 | 35.6 | 10.6
10 | CSc1ccc(Oc2ccc(S(N)(=O)=O)cc2CN2CCCC2)cc1C [Compound 101, 4-(3-methyl-4-(methylthio)phenoxy)-3-(pyrrolidin-1-ylmethyl)benzenesulfonamide] | 1.74 | 40.6 | 4.74
11 | CSc1ccc(Oc2ccc(S(N)(=O)=O)cc2CN2CCC[C@@H]2CO)cc1C [Compound 102, (R)-3-((2-(hydroxymethyl)pyrrolidin-1-yl)methyl)-4-(3-methyl-4-(methylthio)phenoxy)benzenesulfonamide] | 6.76 | > 50 | 17.6
12 | CSc1ccc(Oc2ccc(S(N)(=O)=O)cc2CN2CCC[C@H]2CO)cc1C [Compound 103, (S)-3-((2-(hydroxymethyl)pyrrolidin-1-yl)methyl)-4-(3-methyl-4-(methylthio)phenoxy)benzenesulfonamide] | 6.88 | > 50 | 17.6
13 | COC[C@@H]1CCCN1Cc1cc(S(N)(=O)=O)ccc1Oc1ccc(SC)c(C)c1 [Compound 104, (S)-3-((2-(methoxymethyl)pyrrolidin-1-yl)methyl)-4-(3-methyl-4-(methylthio)phenoxy)benzenesulfonamide] | 27.8 | > 50 | –
